# Read-outs that look alike come from different tables or passages of the source.
# Tests used:
# [1] = system: breast cancer (MCF7) cells; assay: Cytotoxicity MTS assay on MCF-7; type: cell-based, human; conditions: for IC50: Homo sapiens, MCF7, MCF-7, 48 h, MTS, tested 0.01-0.3 mM, read-out: Half maximal inhibition concentration (IC50); for Selectivity index (SI): IC50 NHDF / IC50 MCF7
# Protocol: (§1) Cell culture: NHDF, HeLa, HOS, HepG2, MCF7, MeWo and CT-26 cells were cultivated in complete Eagle’s Minimal Essential Medium alpha (aMEM) containing a 1% Penicillin–Streptomycin–Amphotericin B mixture and a 10% fetal bovine serum under 5% CO2 humidified atmosphere at 37 °C. LN-229 cells were cultivated in DMEM with a 1% Penicillin–Streptomycin–Amphotericin B mixture and a 5% fetal bovine serum. U-118 cells were cultivated in DMEM with a 1% Penicillin–Streptomycin–Amphotericin B mixture and a 10% fetal bovine serum. StemPro™ Accutase™ Cell Dissociation Reagent was used for passaging MeWo and U-118 cells, and TrypLE Express was used for all other cell lines.
# (§2) The working solutions were prepared by diluting the stock solutions with complete medium so that the final concentration of DMSO in the cell culture was 1%. The working solutions were used for incubation. Control cells were treated only with complete cell culture medium containing 1% DMSO.
# (§3) Cytotoxicity MTS assay: In order to perform the MTS assay, cells were placed in culture-treated 96-well plates at densities of 5 × 10^3 cells/well (NHDF and CT-26), 7 × 10^3 cells/well (MCF7) and 10 × 10^3 cells/well (HOS, HeLa, HepG2, MeWo, LN-229, U-118) in 100 μL of a MEM medium/well and allowed to adhere for 24 h. After 24 h, the culture medium was replaced with the tested compound solutions at various concentrations, and the plates were incubated for another 48 h. Before the final reading, 20 μL CellTiter 96® Aqueous One Solution/well was added, and the plates were incubated for 1–4 h. Finally, the absorbance was recorded with a microplate reader at λ = 490 nm. The relative cell viability was expressed as a percentage of the viability of control, and the half maximal inhibitory concentration (IC50) was determined from the graphical representation of the cell viability vs. concentration. Graphical data were expressed as means ± standard error of the mean (S.E.M.). Statistical analysis was made with two-way ANOVA using Tukey’s multiple comparisons test. The difference was considered significant when p < 0.05. Data analysis was performed with GraphPad Prism software version 7.00 for Windows.
# [2] = system: glioblastoma cell line (U-118); assay: Cytotoxicity MTS assay on U-118; type: cell-based, human; conditions: Homo sapiens; U-118, 48 h, MTS; tested 0.01-0.3 mM; read-out: Half maximal inhibition concentration (IC50)
# Protocol: as §1, §2, §3
# [3] = system: mouse colon carcinoma cell line (CT26); assay: Cytotoxicity MTS assay on CT-26; type: cell-based; conditions: for Selectivity index (SI): IC50 NHDF / IC50 CT-26; for IC50: CT-26, 48 h
# Protocol: as §1, §2, §3
# [4] = Solubility test in water with 1% DMSO; type: physicochemical; conditions: water with 1% of DMSO, read-out: concentration up to which the compound is soluble
# Protocol: Solubility tests were performed to establish the maximum concentration of the compounds that might be used for in vitro tests by dissolving 0.003 mmol of compound in 1mL of water (H2O) with 1% of DMSO. The amount of solvent was increased until the compound was completely dissolved. The volume of solvent corresponding to the solving point was used to calculate the concentration. The TEGylated compounds were soluble under 0.3 mM (PTF) and 0.2 mM (PTMA, PTEA), and PEGylated compounds were soluble at to a concentration of 2 mM.
# [5] = DPPH radical scavenging activity; conditions: DPPH, 0.0019-1 mM
# Excerpt: In this light, the antioxidant activity of the studied phenothiazine derivatives was investigated using DPPH assay, measuring the dependence of the free radical inhibition on the concentration as highlighted by a decreasing of the absorbance of DPPH when the concentration of the compound is increasing. The results, expressed in percentage of inhibition, are represented in Figure 4.
# Ex Vivo Radical Scavenging Activity: In order to evaluate antioxidant activity of the studied compounds, a bleaching method of the 1,1-diphenyl-2-picryl hydrazyl (DPPH) radical was used. Briefly, a stock solution of 2 mM of each compound in ethanol was prepared and then diluted to obtain 10 different concentrations from 1 mM to 0.0019 mM using a 96-well plate. The diluted solutions with different concentrations were mixed with an equal volume of ethanolic DPPH solution (0.05 mg/mL), and the mixtures were incubated in the dark at room temperature […] for 1 h. After incubation, the absorbance was read at 517 nm. Inhibition percentage was calculated using Equation (2), where Ac is the absorbance of the control sample (DPPH) and As is the absorbance of the mixtures. All measurements were made in triplicate. I % = (Ac-As)/Ac × 100 (2)
# [6] = system: malignant melanoma (MeWo) cells; assay: Cytotoxicity MTS assay on MeWo; type: cell-based, human; conditions: Homo sapiens; MeWo, 48 h, MTS; tested 0.01-0.3 mM; read-out: Half maximal inhibition concentration (IC50)
# Protocol: as §1, §2, §3
# osteosarcoma (HOS) cells = assay: Cytotoxicity MTS assay on HOS; type: cell-based, human; conditions: Homo sapiens, 48 h, tested 0.01-0.3 mM, read-out: Half maximal inhibition concentration (IC50)
# Protocol: as §1, §2, §3
# [7] = system: glioblastoma (LN229) cells; assay: Cytotoxicity MTS assay on LN229; type: cell-based, human; conditions: Homo sapiens, LN-229, LN229, 48 h, tested 0.01-0.3 mM, read-out: Half maximal inhibition concentration (IC50)
# Protocol: as §1, §2, §3
# [8] = system: cervical carcinoma (HeLa) cells; assay: Cytotoxicity MTS assay on HeLa; type: cell-based, human; conditions: for Selectivity index (SI): IC50 NHDF / IC50 HeLa
# Protocol: as §1, §2, §3
# [9] = system: normal human dermal fibroblasts (NHDF); assay: Cytotoxicity MTS assay on normal fibroblasts; type: cell-based; conditions: Homo sapiens, 48 h, tested 0.01-0.3 mM, read-out: Half maximal inhibition concentration (IC50)
# Protocol: as §1, §2, §3
# [10] = Cytotoxicity MTS assay on normal fibroblasts; type: cell-based, human; conditions: human, normal human dermal fibroblasts (NHDF), read-out: cell viability
# Protocol: as §1, §2, §3
# [11] = system: liver cancer (HepG2) cells; assay: Cytotoxicity MTS assay on HepG2; type: cell-based, human; conditions: for IC50: HepG2, 48 h; for Selectivity index (SI): IC50 NHDF / IC50 HepG2
# Protocol: as §1, §2, §3
# [12] = Complex formation with Mg2+ (estimate of farnesyltransferase inhibition), FTIR/UV-vis; conditions: 2/1 compound/MgCl2, 2 days at 37 °C, FTIR and UV-vis; taken as estimate of farnesyltransferase inhibition
# Protocol: To estimate the ability of the studied compounds to inhibit the FT, their ability to bind the Zn^2+ or Mg^2+ ions was investigated by incubation in similar conditions as in vitro antitumor tests. The experiments indicated the ability of TEGylated derivatives to bind Mg^2+ ions, as follows.
# After that, all the solutions were lyophilized, and the solid samples obtained were subjected to the FTIR spectroscopy measurements. Then, the mixtures that indicated complex formation were dissolved in DMSO, and their UV-vis spectra were recorded.
# NHDF = system: NHDF; design: method as in earlier work; conditions: cited from earlier work
# HeLa = conditions: cited from earlier work
# MCF-7 = conditions: reference cell empty, probably merged; cited from earlier work
# MeWo = conditions: cited from earlier work
# HepG2 = conditions: cited from earlier work
# CT-26 = conditions: cited from earlier work
# [13] = Glutamine imination/transimination (amino acid binding) followed by NMR; conditions: 1/1 molar ratio with glutamine, MEM medium, 37 °C, 48 h
# Protocol: The ability of the studied compounds to bind amino acids by imitation or transamination processes was investigated for glutamine amino acid. To do this, all compounds were incubated in the presence of glutamine for 48 h in a MEM solution to simulate in vitro tests on cancer cell lines. After incubation, the water was removed by lyophilization, and the crude solid was analyzed by NMR. […] Additional information about imine formation was obtained from the H,C-HSQC spectrum (Figure S2). In this type of heteronuclear bidimensional spectrum, a proton–carbon direct bond correlation signal was obtained between the proton resonating at 8.15 ppm and the carbon resonating at 160.5 ppm.
# The mixtures were incubated at 37 °C for 48 h in order to simulate the in vitro conditions of antitumor determinations. After the incubation, all the samples were lyophilized, dissolved in DMSO-d6 and subjected to NMR spectroscopy analysis. The samples that indicated the imine formation were further investigated by recording the ^1H, ^15N HMBC and ^1H, ^13C HSQC NMR spectra. The ^1H-NMR and ^1H, ^15N HMBC NMR spectra of the glutamine dissolved in a mixture of 9/1 H2O/D2O were also provided as reference in order to determine which nitrogen was involved in the imine linkage. After the NMR studies, the same samples were diluted with DMSO to obtain a solution of 0.33 mM in order to provide their UV-vis spectra.
# [14] = Homo sapiens, MTS, tested 0.01-0.3 mM, read-out: Half maximal inhibition concentration (IC50)
# [15] = Mus musculus, CT26, MTS, tested 0.01-0.3 mM, read-out: Half maximal inhibition concentration (IC50)
# [16] = Homo sapiens, HeLa, 48 h, MTS, tested 0.01-0.3 mM, read-out: Half maximal inhibition concentration (IC50)
SMILES,solubility [4],ability to bind Mg^2+ ions (in words) [12],IC50 [1],Selectivity index (SI) [1],IC50 [2],Selectivity index (SI) [3],radical scavenging capacity (in words) [5],IC50 [6],IC50 (osteosarcoma (HOS) cells),IC50 [7],Selectivity index (SI) [8],IC50 [9],"IC50 [11, 14]",Selectivity index (SI) [11],IC50 (NHDF),IC50 (MeWo),IC50 (HepG2),IC50 (CT-26),"IC50 [3, 15]","IC50 [8, 16]",other results
COc1cccc2c1C(=O)c1c(O)c3c(c(O)c1C2=O)C[C@@](O)(C(=O)CO)C[C@@H]3O[C@H]1C[C@H](N)[C@H](O)[C@H](C)O1 [Doxorubicin],,,,,,,,,,,,,,,0.137 µM,88 µM,1.03 µM,10 µM,,,IC50 (HeLa): 0.18 µM; IC50 (MCF-7): 0.07 µM
O=c1[nH]cc(F)c(=O)[nH]1 [5-Florouracil],,,,,,,,,,,,,,,25 µM,61.5 µM,253 µM,300 µM,,,"IC50 (HeLa; reference cell empty, probably merged): 677 µM"

# The next lines start with results.
solubility [4],ability to bind Mg^2+ ions (in words) [12],SMILES,IC50 [1],Selectivity index (SI) [1],IC50 [2],Selectivity index (SI) [3],radical scavenging capacity (in words) [5],IC50 [6],IC50 (osteosarcoma (HOS) cells),IC50 [7],Selectivity index (SI) [8],IC50 [9],"IC50 [11, 14]",Selectivity index (SI) [11],IC50 (NHDF),IC50 (MeWo),IC50 (HepG2),IC50 (CT-26),"IC50 [3, 15]","IC50 [8, 16]",other results
< 300 µM,dative bond with magnesium,"COCCOCCOCCN1c2ccccc2Sc2cc(C=O)ccc21 [PTF, 10-(triethylene glycol)-10H-phenothiazine-3-carbaldehyde]",108 µM,1.5,190 µM,2.38,very low radical scavenging capacity,147 µM,> 300 µM,186 µM,10,150 µM,50 µM,3,,,,,,,"viability at 100 µM ([3]; Mus musculus, CT26, CT-26, 0.1 mM, 48 h, MTS): 30%; IC50 ([3]; Mus musculus, CT26, MTS, read-out: IC50): 63 µM; viability at 50 µM ([8]; Homo sapiens, HeLa, 0.05 mM, 48 h, MTS, read-out: cell viability): 11%; IC50 ([8]; Homo sapiens, HeLa, 48 h, MTS, read-out: IC50): 15 µM; viability at 48 h, 0.05 mM ([10]; 0.05 mM): 86%; viability at 48 h, 0.2 mM ([10]; 0.2 mM): 33%; viability at 100 µM ([11]; Homo sapiens, HepG2, 0.1 mM, 48 h, MTS, read-out: cell viability): 27%; IC50 ([11]; Homo sapiens, MTS, read-out: IC50): 52 µM"
< 200 µM,formation of dative bonds,COCCOCCOCCN1c2ccccc2Sc2cc(/C=N/CCc3ccc(S(N)(=O)=O)cc3)ccc21 [PTEA],138 µM,,170 µM,1.25,very low radical scavenging capacity,239 µM,> 300 µM,183 µM,6.66,107 µM,85 µM,1.25,,,,,80 µM,15 µM,ability to bind glutamine by imination/transimination (in words) [13]: direct transimination
< 200 µM,formation of dative bonds,"COCCOCCOCCN1c2ccccc2Sc2cc(/C=N/Cc3ccc(S(N)(=O)=O)cc3)ccc21 [PTMA, 4-((((10-(triethylene glycol)-10H-phenothiazin-3-yl)methylene)amino)methyl)benzenesulfonamide]",141 µM,1.42,> 300 µM,2,very low radical scavenging capacity,287 µM,> 300 µM,219 µM,6.89,200 µM,83 µM,2.5,,,,,107 µM,29 µM,ability to bind glutamine by imination/transimination (in words) [13]: glutamine binding process took places in two steps
